Measured values reported in patent publication US5834431A, “Des-Arg^9 -BK antagonists” (Cortech, Inc., priority 1995, dated 1998).
Square brackets hold non-standard residues; d marks the D form. Ends that are not written are not given here. Peptide text beside a SMILES is read from it. Oic = O=C(O)[C@@H]1C[C@@H]2CCCC[C@@H]2N1; dIgl = N[C@@H](C(=O)O)C1Cc2ccccc2C1; Gly(cPent) = N[C@H](C(=O)O)C1CCCC1; Igl = N[C@H](C(=O)O)C1Cc2ccccc2C1; Hyp = O=C(O)[C@@H]1C[C@@H](O)CN1; dTic = O=C(O)[C@H]1Cc2ccccc2CN1

Key:
[1] = target: T1, B2 receptor (Cavia porcellus, UniProt O70526); assay: GPI binding B2; settings: i.a. = inactive, read-out: GPI Binding - pIC50 B2 (converted)
T1 construct: from tissue
T1 sequence (O70526 1-372): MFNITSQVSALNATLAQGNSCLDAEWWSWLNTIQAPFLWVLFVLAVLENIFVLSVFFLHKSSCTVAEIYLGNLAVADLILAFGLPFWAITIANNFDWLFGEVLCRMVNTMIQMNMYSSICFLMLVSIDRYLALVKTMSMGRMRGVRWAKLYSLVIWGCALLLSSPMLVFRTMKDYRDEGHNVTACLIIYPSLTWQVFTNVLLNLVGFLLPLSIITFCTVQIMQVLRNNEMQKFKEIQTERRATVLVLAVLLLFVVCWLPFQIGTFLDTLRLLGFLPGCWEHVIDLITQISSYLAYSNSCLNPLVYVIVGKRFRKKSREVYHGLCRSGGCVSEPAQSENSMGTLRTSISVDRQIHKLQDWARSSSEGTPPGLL

[2] = target: T2, B1 receptor (Homo sapiens, UniProt P46663); assay: Human B1 binding, IL-1b-treated IMR-90 membranes, 3H-des-Arg9-Kallidin; settings: 0.5 nM 3H-des-Arg9-Kallidin, pIC50 = -log of molar IC50
T2 construct: Human lung fibroblasts IMR-90 cells were obtained from ATCC and propagated in DMEM media; host or cells: IMR-90 human lung fibroblasts, treated with interleukin 1b three hours before harvest; membranes
T2 sequence (P46663 1-353): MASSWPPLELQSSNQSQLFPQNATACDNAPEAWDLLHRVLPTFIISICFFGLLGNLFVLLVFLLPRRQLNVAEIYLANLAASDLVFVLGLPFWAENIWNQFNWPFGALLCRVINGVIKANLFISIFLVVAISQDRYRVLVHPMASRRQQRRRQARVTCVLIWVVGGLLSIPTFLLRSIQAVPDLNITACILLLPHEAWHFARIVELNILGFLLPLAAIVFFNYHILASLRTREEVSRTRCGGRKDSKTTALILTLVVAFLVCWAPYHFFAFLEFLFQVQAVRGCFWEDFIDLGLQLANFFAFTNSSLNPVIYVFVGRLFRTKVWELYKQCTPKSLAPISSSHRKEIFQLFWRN
Procedure: (§1) Human lung fibroblasts IMR-90 cells were obtained from ATCC and propagated in DMEM media in […] roller bottles until confluent. Three hours prior to harvesting, the cells were treated with Interleukin lb (200 pg/ml). Human BK2 clones were propagated in F12 media until confluent. Preparation of membranes for binding assays was carried out by scraping cells from roller bottles in ice cold PBS and centrifuging at 1000 ×g, at 4° C. for 15 minutes. The supernatant was discarded and pellet resuspended in Buffer A consisting of 25 mM TES(pH 6.8) with 2 uM 1,10-Phenanthroline, and centrifuged at 27,000 ×g for 15 min. this was then repeated. The final pellet was resuspended in Buffer B (Buffer A with 2 uM Captopril, 140 ug/Ml Bacitracin, 0.1%BSA), and stored in 1 ml aliquots, frozen at -20° C. until needed.
(§2) Binding assays were performed by incubating human clone membranes with 0.3 nM ^3 H-Bradykinin or IMR-90 membranes with 0.5 nM ^3 H-des-Arg^9 -Kallidin in the presence of the peptides in assay buffer (Buffer B with 1 mM Dithiotreitol), at room temperature, for 45 minutes. All test compound dilutions were in triplicate. Assays were harvested by quick filtration in a Tomtec Harvester 96, with ice cold wash buffer consisting of 10 mM Tris/HCl, pH 7.5, 100 mM NaCl, 0.02%BSA, onto Wallec printed glassfiber Filtermat "B", which had been pre-soaked with 0.1% PEI and previously air-dried.

[3] = target: T3, B2 receptor (Homo sapiens, UniProt P30411); assay: Human B2 binding, human BK2 clone membranes, 3H-Bradykinin; settings: 0.3 nM 3H-Bradykinin, i.a. = inactive, read-out: Human Binding - pIC50 B2 (converted)
T3 construct: expressed in transfected cells
T3 sequence (P30411 1-391): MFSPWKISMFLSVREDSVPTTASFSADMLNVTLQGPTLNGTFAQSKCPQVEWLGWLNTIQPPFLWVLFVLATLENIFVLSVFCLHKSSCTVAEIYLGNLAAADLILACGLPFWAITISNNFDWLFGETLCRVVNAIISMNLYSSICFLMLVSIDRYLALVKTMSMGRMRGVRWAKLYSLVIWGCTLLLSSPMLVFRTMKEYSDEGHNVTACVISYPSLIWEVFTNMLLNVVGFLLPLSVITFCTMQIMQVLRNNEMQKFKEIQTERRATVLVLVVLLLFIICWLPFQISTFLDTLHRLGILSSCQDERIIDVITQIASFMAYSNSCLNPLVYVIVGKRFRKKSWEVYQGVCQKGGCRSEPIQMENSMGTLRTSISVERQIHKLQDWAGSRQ
Procedure: as §1
as §2, with “air-dried. Filtermats were counted in 9.5 mls Wallec Beta-Plate Scint, in Wallec 1450 MicroBeta Counter.” for “air-dried.”

[4] = Stability in rat kidney brush border microvilli; type: in vitro ADME
Procedure: Kidney membranes were prepared as indicated in the literature (Booth et al., Biochemical Journal, 142: 575 (1974)). Rat kidneys were obtained after sacrifice and rinsed in several volumes of a 2 mM tris, 10 mM mannitol buffer, pH 7.1. Cortical material was carefully removed and homogenized in ten volumes of the buffer. The homogenate was spun in a IEC Centra-8 refrigerated centrifuge. (4° C., 200×g). The supernatant was made 10 mM with respect to MgCl2. The supernatant material was subjected to further centrifugation as indicated: [drawing 2] Pellet resuspended in tris-mannitol buffer. Protein concentration was determined by the method of Bradford (Anal. Biochem., 72:248-254 (1976)). Bradykinin antagonists were prepared at 1 mM concentration in a phosphate-buffered saline solution (phosphate saline, 2.6 mM KH2 PO4, 10.42 mM Na2 HPO4, 0.1454M NaCl, pH. 7.2). Aliquots (10 μl) of the compound were added to 90 μl of the tissue samples in Eppendorf tubes. Samples were incubated various time points at 37° C. At each time point protein was precipitated by addition of acetonitrile, acetonitrile made 0.1M HCl or 10% (v/v) trifluoroacetic acid in water (100 μl). Tubes were spun (14,000 rpm, 10 min) in an Eppendorf Model 5415C microcentrifuge. Samples were filtered and analyzed using reverse-phase HPLC (C18 column 4.6×150 mm) and a 13.5% to 90% acetonitrile gradient in 0.1% TFA. Compound half-life was determined by analysis of raw data using ENZFIT application software (Elsevier).

[5] = Stability in rat lung membranes; type: in vitro ADME
Procedure: Rat or human lung (3 gm) was prepared as a modification of […] et al. (Biochemical Pharmacology 33: 3471 (1984)). Tissues were removed and placed in cold phosphate-saline (3×). Material was minced and homogenized in 20 volumes (w/v) of 0.5 mM tris HCl. 50 mM mannitol, pH 7.0. Calcium chloride was added to the homogenate to give a final concentration of 10 mM. The material was filtered through a guaze pad to remove loose connective tissue. Filtrate was spun in a Beckman centrifuge (3,000×g) for thirty minutes. The resultant supernatant fraction was spun in a Beckman L7-65 ultracentrifuge (43,000×g, 30 min) to spin down membranes. The centrifugation step was repeated on the membrane pellet fraction two additional times. The pellet was reconstituted in 4 ml of the tris mannitol buffer and stored at -70° C. Protein was determined by the method of Bradford. Bradykinin antagonists were prepared at 1 mM concentration in a phosphate-buffered saline solution (phosphate saline, 2.6 mM KH2 PO4, 10.42 mM Na2 HPO4, 0.1454M NaCl, pH. 7.2). Aliquots (10 μl) of the compound were added to 90 μl of the tissue samples in Eppendorf tubes. Samples were incubated various time points at 37° C. At each time point protein was precipitated by addition of acetonitrile, acetonitrile made 0.1M HCl or 10% (v/v) trifluoroacetic acid in water (100 μl). Tubes were spun (14,000 rpm, 10 min) in an Eppendorf Model 5415C microcentrifuge. Samples were filtered and analyzed using reverse-phase HPLC (C18 column 4.6×150 mm) and a 13.5% to 90% acetonitrile gradient in 0.1% TFA. Compound half-life was determined by analysis of raw data using ENZFIT application software (Elsevier).

[6] = target: T4, BK1 (hypotensive response to desArg9BK) (Canis lupus familiaris, UniProt Q9BDQ5); assay: In vivo inhibition of hypotensive response to desArg9BK in anaesthetized dogs; set-up: species or system Mongrel dogs; settings: dog
T4 construct: Mongrel dogs of either sex, weight range 10-15 kg were used; from tissue; host or cells: whole anaesthetized mongrel dog (in vivo blood pressure)
T4 sequence (Q9BDQ5 1-350): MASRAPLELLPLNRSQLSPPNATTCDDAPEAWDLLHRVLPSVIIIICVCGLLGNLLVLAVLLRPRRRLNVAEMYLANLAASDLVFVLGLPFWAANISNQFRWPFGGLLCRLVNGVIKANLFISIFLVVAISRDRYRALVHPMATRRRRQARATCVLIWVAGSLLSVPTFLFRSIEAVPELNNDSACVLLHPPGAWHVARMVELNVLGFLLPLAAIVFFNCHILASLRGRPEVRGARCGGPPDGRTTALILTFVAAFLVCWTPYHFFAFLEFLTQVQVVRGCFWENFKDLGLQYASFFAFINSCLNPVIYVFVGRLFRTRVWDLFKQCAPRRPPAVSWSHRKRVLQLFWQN
Procedure: Mongrel dogs of either sex, weight range 10-15 kg were used. These were anaesthesized with pentobarbitone, 30 mg/kg i.v. and catheters placed in one femoral artery and both femoral veins for the recording of blood pressure and infusion and injection of compounds. […] After the end of the infusion of the highest dose of the antagonist compound, BK and des-Arg^9 -BK were injected at intervals for up to four hours.

[7] = test system: angiogenic response elicited by bradykinin; settings: literature, Hu et al. 1993; cited from earlier work
[8] = test system: type I diabetic hyperglycemia; settings: literature, Zuccollo et al. 1995; cited from earlier work

N=C(N)NCCC[C@@H](N)C(=O)N[C@@H](CCCNC(=N)N)C(=O)N1CCC[C@H]1C(=O)N1C[C@H](O)C[C@H]1C(=O)NCC(=O)N[C@H](C(=O)N[C@@H](CO)C(=O)N1Cc2ccccc2C[C@@H]1C(=O)N[C@H](C(=O)O)C1CCCC1)C1CCCC1 [B9066, DArg-Arg-Pro-Hyp-Gly-Cpg-Ser-DTic-Cpg] (H-[dR]RP[Hyp]G[Gly(cPent)]S[dTic][Gly(cPent)]-OH) gave an IC50 [1] of 2.51 µM, an IC50 [2] of 0.000501 µM and an IC50 [3] of 1.26 µM. It also gave a Half-Life [4] greater than 6 h and a Half-Life [5] greater than 6 h.

With N=C(N)NCCC[C@@H](N)C(=O)N[C@@H](CCCNC(=N)N)C(=O)N1CCC[C@H]1C(=O)N1C[C@H](O)C[C@H]1C(=O)NCC(=O)N[C@H](C(=O)N[C@@H](CO)C(=O)N[C@@H](C(=O)N1[C@H](C(=O)O)C[C@@H]2CCCC[C@@H]21)C1Cc2ccccc2C1)C1Cc2ccccc2C1 [B9812, DArg-Arg-Pro-Hyp-Gly-Igl-Ser-DIgl-Oic] (H-[dR]RP[Hyp]G[Igl]S[dIgl][Oic]-OH) the “BK1 ED50” value ([6]; ED50 expressed in pmol) was 10.7 pmol, the “Duration of Action (following 20 min of highest dose)” value ([6]; return of agonist response after end of infusion) was “B1 still 100% blocked at 4.6 h” and the “Selectivity (BK, desArg9BK, ACh, NE, Sp, AII)” value ([6]; which agonist responses are blocked at the stated infusion dose) was “B1 only at 1.0”. The Half-Life [4] was greater than 6 h and the Half-Life [5] was greater than 6 h.

In the case of CC(C)C[C@H](NC(=O)[C@@H]1CCCN1C(=O)[C@H](CO)NC(=O)[C@H](Cc1ccccc1)NC(=O)CNC(=O)[C@@H]1CCCN1C(=O)[C@@H]1CCCN1C(=O)[C@H](CCCN=C(N)N)NC(=O)[C@@H](N)CCCCN)C(=O)O [CP-0298, desArg9 Lys0 Leu8 BX, reference compound], the “BK1 ED50” value ([6]; infusion, dose of antagonist to inhibit hypotensive response to desArg9BK by 50%) is reported as 0.546 ± .16 µg/kg/min, the Half-Life [4] is reported as 0.020 h and the Half-Life [5] is reported as 0.085 h.

In the case of “RPPGFSPFR [Bradykinin, Arg^1 -Pro^2 -Pro^3 -Gly^4 -Phe^5 -Ser^6 -Pro^7 -Phe^8 -Arg^9, reference compound]”, the Half-Life ([4]; Rat kidney Brush Border, 37° C.) is reported as 0.13 h and the Half-Life ([5]; Rat Lung Membranes, 37° C.) is reported as 0.13 h.

For [Leu^8, des-Arg^9 ]-bradykinin, the “effect on angiogenic response elicited by bradykinin” value [7] is listed as “inhibit the angiogenic response elicited by bradykinin” and the “effect on type I diabetic hyperglycemia” value [8] is listed as “cause a reduction in type I diabetic hyperglycemia”.
